# Source: PMC7435673, “Synthesis of α-Aminophosphonic Acid Derivatives Through the Addition of O- and S-Nucleophiles to 2H-Azirines and Their Antiproliferative Effect on A549 Human Lung Adenocarcinoma Cells” (Molecules, 2020)
# Like-named read-outs stand apart in the source and are kept apart here.
# Tests used:
# [1] = Cytotoxicity CCK-8 assay, MRC-5 (selectivity); details: human, MRC-5 non-malignant lung fibroblasts
# Source text: (§1) The cytotoxicity of the new α-aminophosphine oxide and phosphonate acetals 4 and 5, β-keto-α-aminophosphonate 6, aziridines 7, 10 and 14, and allylic α-aminophosphine oxides and phosphonates 8, 9, 11, 12, 15 and 16 was investigated in vitro by checking their antiproliferative activities against the human cancer cell line A549 (carcinomic human alveolar basal epithelial cells). […] In order to assess growth inhibition, cell counting kit (CCK-8) assay was employed. […] Likewise, healthy lung cells, such as MRC-5 non-malignant lung fibroblasts were tested to study the selectivity of the cytotoxicity [49].
# (§2) All stock solutions of the investigated compounds were prepared by dissolving the powered materials in appropriate amounts of DMSO. The final concentration of DMSO never exceeded 5% (v/v) in reactions. The stock solution was stored at 5 °C until it was used.
# (§3) Cells were cultured according to the supplier’s instructions. […] On day 2, compounds were added and samples were incubated for 48 h. […] The absorbance of each well was determined by an Automatic ELISA Reader System (Multiskan FC, Thermo Fisher Scientific, Waltham, MA, USA) at 450 nm wavelength.
# [2] = system: Human colon carcinoma cell line (RKO); assay: Cytotoxicity (antiproliferative) CCK-8 assay, RKO; details: for IC50: Homo sapiens, Colon carcinoma cell, 48 h, read-out: cytotoxicity value against human colon carcinoma cell line (RKO); for toxicity toward RKO (in words): in vitro, CCK-8
# Procedure: Human colon carcinoma cell line (RKO) was also used to test the antiproliferative activity of some of our compounds. In order to assess growth inhibition, cell counting kit (CCK-8) assay was employed.
# as §2
# Cells were cultured according to the supplier’s instructions. Cells were seeded in 96-well plates at a density of 2–4 × 10^3 cells per well and incubated overnight in 0.1 mL of media supplied with 10% Fetal Bovine Serum (Lonza) in 5% CO2 incubator at 37 °C. On day 2, compounds were added and samples were incubated for 48 h. After treatment, 10 μL of cell counting kit-8 was added into each well for additional 2 h incubation at 37 °C. The absorbance of each well was determined by an Automatic ELISA Reader System (Multiskan FC, Thermo Fisher Scientific, Waltham, MA, USA) at 450 nm wavelength.
# [3] = system: human cancer cell line A549 (carcinomic human alveolar basal epithelial cells); assay: Cytotoxicity (antiproliferative) CCK-8 assay, A549; details: for IC50: read-out: Cytotoxicity IC50 Lung A549; for toxicity toward A549 (in words): in vitro, CCK-8
# Source text: as §1, §2, §3
# in vitro = details: human
# Source text: as §1, §2, §3
# [4] = system: MRC-5 non-malignant lung fibroblasts; assay: Cytotoxicity CCK-8 assay, MRC-5 (selectivity); details: in vitro, CCK-8
# Source text: as §1, §2, §3
# [5] = CCK-8, 48 h incubation, concentration corresponding to 50% growth inhibition
compound,measurement,setting,value
"C=C(Sc1ccccc1)C(N)P(=O)(c1ccccc1)c1ccccc1 (centres unmarked) [Compound 15a, [1-Amino-2-(phenylthio)allyl]diphenylphosphine oxide]",IC50 at 48 h,[1],15.9 ± 2.79 µM
same,IC50,[2],> 50 µM
same,toxicity toward RKO (in words),[2],do not exhibited any toxicity
same,IC50,"[3]; Homo sapiens, A549, 48 h",2.6 ± 0.68 µM
"CCOC(C)(OCC)C(NS(=O)(=O)c1ccc(C)cc1)P(=O)(OCC)OCC (centres unmarked) [Compound 5d, Diethyl [2,2-diethoxy-1-((4-methylphenyl)sulfonamido)propyl]phosphonate]",IC50,in vitro,> 50 µM
same,IC50,"[3]; Homo sapiens, A549, 48 h",3.7 ± 0.49 µM
"COC(C)(OC)C(N)P(=O)(c1ccccc1)c1ccccc1 (centres unmarked) [Compound 4a, (1-Amino-2,2-dimethoxypropyl) diphenylphosphine oxide]",melting point,,125 to 127 °C
same,IC50 at 48 h,[1],> 50 µM
same,IC50,[2],> 50 µM
same,toxicity toward RKO (in words),[2],do not exhibited any toxicity
same,IC50,"[3]; Homo sapiens, A549, 48 h",4.4 ± 0.72 µM
"C=C(Sc1ccccc1)C(NS(=O)(=O)c1ccc(C)cc1)P(=O)(OCC)OCC (centres unmarked) [Compound 16c, Diethyl [1-((4-methylphenyl)sulfonamido)-2-(phenylthio)allyl]phosphonate]",melting point,,99 to 101 °C
same,IC50,in vitro,24.1 ± 3.55 µM
same,IC50,[2],> 50 µM
same,toxicity toward RKO (in words),[2],do not exhibited any toxicity
same,IC50,"[3]; Homo sapiens, A549, 48 h",0.2 ± 0.07 µM
"COC(C)(OC)C(NS(=O)(=O)c1ccc(C)cc1)P(=O)(OC(C)C)OC(C)C (centres unmarked) [Compound 5b, Diisopropyl [2,2-dimethoxy-1-((4-methylphenyl)sulfonamido)propyl]phosphonate]",IC50 at 48 h,[1],> 50 µM
same,IC50,"[3]; Homo sapiens, A549, 48 h",1.7 ± 0.3 µM
"CCOC(C)(OCC)C(N)P(=O)(c1ccccc1)c1ccccc1 (centres unmarked) [Compound 4d, (1-Amino-2,2-diethoxypropyl)diphenylphosphine oxide]",melting point,,126 to 128 °C
same,IC50 at 48 h,[1],> 50 µM
same,IC50,"[3]; Homo sapiens, A549, 48 h",9.6 ± 1.13 µM
"C=C(Oc1ccccc1)C(NS(=O)(=O)c1ccc(C)cc1)P(=O)(OCC)OCC (centres unmarked) [Compound 12a, Diethyl [1-((4-methylphenyl)sulfonamido)-2-phenoxyallyl]phosphonate]",melting point,,117 to 119 °C
same,IC50,in vitro,> 50 µM
same,IC50,"[3]; Homo sapiens, A549, 48 h",4.8 ± 0.9 µM
"CCOP(=O)(OCC)C(N)C(C)(OC)OC (centres unmarked) [Compound 4f, Diethyl (1-amino-2,2-dimethoxypropyl)phosphonate]",IC50,[3]; [5],1.3 ± 0.1 µM
"C[C@@]1(OCC(F)(F)F)N[C@H]1P(=O)(c1ccccc1)c1ccccc1 (relative stereo) [Compound 7, [(2S*,3S*)-3-Methyl-3-(2,2,2-trifluoroethoxy)aziridin-2-yl]diphenylphosphine oxide]",melting point,,98 to 100 °C
same,IC50 at 48 h,in vitro,> 50 µM
same,IC50,"[3]; Homo sapiens, A549, 48 h",3.6 ± 0.7 µM
"C=C(Sc1ccc(C)cc1)C(NS(=O)(=O)c1ccc(C)cc1)P(=O)(c1ccccc1)c1ccccc1 (centres unmarked) [Compound 16b, N-[1-(Diphenylphosphoryl)-2-(p-tolylthio)allyl]-4-methylbenzene-sulfonamide]",melting point,,180 to 182 °C
same,IC50 at 48 h,[1],> 50 µM
same,IC50,"[3]; Homo sapiens, A549, 48 h",2.1 ± 0.15 µM
"C=C(OCC(F)(F)F)C(NS(=O)(=O)c1ccc(C)cc1)P(=O)(c1ccccc1)c1ccccc1 (centres unmarked) [Compound 9, N-[1-(Diphenylphosphoryl)-2-(2,2,2-trifluoroethoxy)allyl]-4-methylbenzenesulfonamide]",melting point,,201 to 203 °C
same,IC50 at 48 h,[1],> 50 µM
same,IC50,"[3]; Homo sapiens, A549, 48 h",3.5 ± 0.77 µM
"C=C(Sc1ccccc1)C(NS(=O)(=O)c1ccc(C)cc1)P(=O)(c1ccccc1)c1ccccc1 (centres unmarked) [Compound 16a, N-[1-(Diphenylphosphoryl)-2-(phenylthio)allyl]-4-methylbenzenesulfonamide]",melting point,,199 to 201 °C
same,IC50 at 48 h,[1],> 50 µM
same,IC50,"[3]; Homo sapiens, A549, 48 h",1.2 ± 0.09 µM
"CCC(OC)(OC)C(N)P(=O)(c1ccccc1)c1ccccc1 (centres unmarked) [Compound 4b, (1-Amino-2,2-dimethoxybutyl)diphenylphosphine oxide]",melting point,,96 to 97 °C
same,IC50 at 48 h,[1],> 50 µM
same,IC50,"[3]; Homo sapiens, A549, 48 h",21.3 ± 0.22 µM
"COC(C)(OC)C(NS(=O)(=O)c1ccc(C)cc1)P(=O)(c1ccccc1)c1ccccc1 (centres unmarked) [Compound 5a, N-[1-(Diphenylphosphoryl)-2,2-dimethoxypropyl]-4-methylbenzenesulfonamide]",melting point,,205 to 207 °C
same,IC50 at 48 h,[1],> 50 µM
same,IC50,"[3]; Homo sapiens, A549, 48 h",8.2 ± 0.23 µM
"C=C(Oc1ccc2ccccc2c1)C(NS(=O)(=O)c1ccc(C)cc1)P(=O)(OCC)OCC (centres unmarked) [Compound 12b, Diethyl [1-((4-methylphenyl)sulfonamido)-2-(naphthalen-2-yloxy)allyl]-phosphonate]",melting point,,147 to 149 °C
same,IC50,in vitro,17.5 ± 1.47 µM
same,IC50,"[3]; Homo sapiens, A549, 48 h",2.1 ± 0.22 µM
"C=C(Sc1ccc(OC)cc1)C(N)P(=O)(c1ccccc1)c1ccccc1 (centres unmarked) [Compound 15d, [1-Amino-2-((4-methoxyphenyl)thio)allyl]diphenylphosphine oxide]",IC50 at 48 h,[1],> 50 µM
same,IC50,"[3]; Homo sapiens, A549, 48 h",2.6 ± 0.42 µM
"CC(=O)C(NS(=O)(=O)c1ccc(C)cc1)P(=O)(OC(C)C)OC(C)C (centres unmarked) [Compound 6, Diisopropyl [1-((4-methylphenyl)sulfonamido)-2-oxopropyl]phosphonate]",melting point,,121 to 122 °C
same,IC50,"[3]; Homo sapiens, A549, 48 h",> 50 µM
same,toxicity toward A549 (in words),[3],do not exhibited any toxicity
"C=C(Oc1ccc2ccccc2c1)C(N)P(=O)(c1ccccc1)c1ccccc1 (centres unmarked) [Compound 11b, [1-Amino-2-(naphyhalen-2-yloxy)allyl]diphenylphosphine oxide]",IC50 at 48 h,[1],33.6 ± 3.73 µM
same,IC50,"[3]; Homo sapiens, A549, 48 h",2.7 ± 0.44 µM
"C=C(Sc1ccc(F)cc1)C(NS(=O)(=O)c1ccc(C)cc1)P(=O)(OCC)OCC (centres unmarked) [Compound 16d, Diethyl [2-((4-fluorophenyl)thio)-1-((4-methylphenyl)sulfonamido)-allyl]-phosphonate]",melting point,,117 to 119 °C
same,IC50,in vitro,> 50 µM
same,IC50,"[3]; Homo sapiens, A549, 48 h",3 ± 0.98 µM
"O=P(c1ccccc1)(c1ccccc1)[C@@H]1N[C@]1(Sc1ccccc1)c1ccccc1 (relative stereo) [Compound 14c, Diphenyl [(2S*,3S*)-3-phenyl-3-(phenylthio)aziridin-2-yl]phosphine oxide]",IC50 at 48 h,in vitro,4.9 ± 0.49 µM
same,toxicity toward MRC-5 cell line (in words),[4],good cytotoxicity
same,IC50,[2],9.7 µM
same,IC50,"[3]; Homo sapiens, A549, 48 h",1.1 ± 0.32 µM
"C[C@@]1(Oc2ccccc2)N[C@H]1P(=O)(c1ccccc1)c1ccccc1 (relative stereo) [Compound 10a, [(2S*,3S*)-3-Methyl-3-phenoxyaziridin-2-yl]diphenylphosphine oxide]",melting point,,124 to 126 °C
same,IC50 at 48 h,in vitro,> 50 µM
same,IC50,"[3]; Homo sapiens, A549, 48 h",13.3 ± 1.69 µM
"CCOP(=O)(OCC)C(NS(=O)(=O)c1ccc(C)cc1)C(C)(OC)OC (centres unmarked) [Compound 5c, Diethyl [2,2-dimethoxy-1-((4-methylphenyl)sulfonamido)propyl]phosphonate]",IC50,in vitro,> 50 µM
same,IC50,"[3]; Homo sapiens, A549, 48 h",4.5 ± 0.45 µM
"C=C(Oc1ccccc1)C(N)P(=O)(c1ccccc1)c1ccccc1 (centres unmarked) [Compound 11a, (1-Amino-2-phenoxyallyl)diphenylphosphine oxide]",IC50 at 48 h,[1],> 50 µM
same,IC50,[2],> 50 µM
same,toxicity toward RKO (in words),[2],do not exhibited any toxicity
same,IC50,"[3]; Homo sapiens, A549, 48 h",1.9 ± 0.13 µM
"C=C(Sc1ccc(C)cc1)C(NS(=O)(=O)c1ccc(C)cc1)P(=O)(OCC)OCC (centres unmarked) [Compound 16e, Diethyl [1-((4-methylphenyl)sulfonamido)-2-(p-tolylthio)allyl]phos-phonate]",melting point,,168 to 170 °C
same,IC50,in vitro,> 50 µM
same,IC50,"[3]; Homo sapiens, A549, 48 h",3.9 ± 0.63 µM
"COC(OC)(c1ccccc1)C(N)P(=O)(c1ccccc1)c1ccccc1 (centres unmarked) [Compound 4c, (1-Amino-2,2-dimethoxy-2-phenylethyl)diphenylphosphine oxide]",melting point,,113 to 115 °C
same,IC50 at 48 h,[1],> 50 µM
same,IC50,"[3]; Homo sapiens, A549, 48 h",16.1 ± 2.03 µM
"C=C(OCC(F)(F)F)C(N)P(=O)(c1ccccc1)c1ccccc1 (centres unmarked) [Compound 8, [1-Amino-2-(2,2,2-trifluoroethoxy)allyl]diphenylphosphine oxide]",IC50 at 48 h,[1],> 50 µM
same,IC50,"[3]; Homo sapiens, A549, 48 h",> 50 µM
same,toxicity toward A549 (in words),[3],do not exhibited any toxicity effect
"C=C(Sc1ccc(F)cc1)C(N)P(=O)(c1ccccc1)c1ccccc1 (centres unmarked) [Compound 15c, [1-Amino-2-((4-fluorophenyl)thio)allyl]diphenylphosphine oxide]",IC50 at 48 h,[1],> 50 µM
same,IC50,[2],> 50 µM
same,toxicity toward RKO (in words),[2],do not exhibited any toxicity
same,IC50,"[3]; Homo sapiens, A549, 48 h",0.1 ± 0.08 µM
"C=C(Sc1ccc(C)cc1)C(N)P(=O)(c1ccccc1)c1ccccc1 (centres unmarked) [Compound 15b, [1-Amino-2-(p-tolylthio)allyl]diphenylphosphine oxide]",IC50 at 48 h,[1],14.9 ± 1.61 µM
same,IC50,"[3]; Homo sapiens, A549, 48 h",5.1 ± 0.77 µM
"COC(C)(OC)C(N)P(=O)(OC(C)C)OC(C)C (centres unmarked) [Compound 4e, Diisopropyl (1-amino-2,2-dimethoxypropyl)phosphonate]",IC50,[3]; [5],4.6 ± 0.31 µM
"C=C(Sc1ccccc1)C(N)P(=O)(OCC)OCC (centres unmarked) [Compound 15e, Diethyl [1-amino-2-(phenylthio)allyl]phosphonate]",IC50,[3]; [5],7.2 ± 0.49 µM
